Earlier results, collected in patent publication US20100255118A1, “ORAL ZINC MEDICANTS USEFUL FOR SAFELY LOWERING FREE COPPER ABSORPTION AND FREE COPPER LEVELS” (priority 2007, published 2010).

Tests used:
[1] = infant rhesus monkeys
[2] = adequate intake by mothers prior to pregnancy
[3] = Wilson's patients
[4] = humans, oral dose of Cu64 as copper acetate

[67Cu] [Cu^67]
copper absorption [1]: 50-70%

Nc1nc2ncc(CNc3ccc(C(=O)N[C@@H](CCC(=O)O)C(=O)O)cc3)nc2c(=O)[nH]1 [folic acid]
reduction of the incidence of NTDs [2]: up to 70%

[Zn] [zinc]
time to achieve intestinal metallothionein induction and a negative copper balance [3]: approximately two
copper balance induced (average) ([3]; at the two week point): −0.35 mg daily

copper acetate
oral dose absorbed from the gastrointestinal tract [4]: about 65%
oral dose absorbed from the gastrointestinal tract (range) ([4]; range): 15-97%
